Patent US20210348107A1, “DEVICE AND SYSTEMS COMPRISING ELECTRODE ARRAYS FOR ELECTROCONDUCTIVE CELLS” (UNIVERSITY OF WASHINGTON, priority 2018, published 2021)

Key:
neurons = conditions: following spinal cord, head injury, and cerebral ischemia; by blocking excitotoxicity; cited from earlier work
ALS patients = conditions: cited from earlier work
CMT2 neurons [1] = assay: Acetylated α-tubulin levels in CMT2 neurons after HDAC6 inhibitor treatment; format: cell-based, human; conditions: data not shown
From the text: Treatment with this compound was also found to improve both the absolute velocity and the total number of moving axonal mitochondria. Decreased acetylated α-tubulin abundance is a characteristic feature of CMT2, and has been directly linked to severe axonal transport deficits in mouse models of the disease. […] The NMJ platform constitutes the ideal model for performing assessment of whether the reported changes result in restoration of WT NMJ phenotypes. Furthermore, the establishment of methods for screening compound action using this platform is translatable to other drug candidates and models of other neuropathic disease states.

CMT2 neurons [2] = assay: Live cell imaging of mitochondrial transport along axons of CMT2 iPSC motor neurons; format: cell-based, human
Method: Mitochondrial transport along axons is evaluated using live cell imaging of cultured neurons. Cells are infected with a lentiviral vector expressing mitochondrially targeted fluorescent probe dsRed (mito-dsRed) permitting real-time assessment of mitochondrial movement. Cells are placed within an environmental chamber mounted on an epifluorescent microscope and mitochondrial movement is recorded for 10 minutes with 3-second time-lapse intervals. Image analysis is performed with ImageJ, and Matlab code can be used, for example, to calculate mitochondrial velocity by measuring the distance between the position of individual mitochondria at the start and end of time-lapse recordings and dividing by the time elapsed. This provides a measure of overall transport velocity that includes anterograde and retrograde movements and stationary periods. Mitochondria are then classified as motile (velocity >0.1 μm s-1) or stationary (velocity ≤0.1 μm s-1), in line with disclosed methods (see e.g., Saporta et al. Experimental neurology. 2015; 263:190-9). Immunostaining is used to quantify mitochondrial density within the developing growth cone of cultured neurons as a means to evaluate the effect of altered transport on presynaptic development. To account for time dependent maturation, neurons are evaluated for all end-points following 1, 2, 3, and 4 weeks in culture. […]

human cells = conditions: cited from earlier work
nerve terminal = conditions: cited from earlier work

Cc1cccc(C)c1OCC(C)N (centres unmarked) [Mexiletine]
protection of neurons (neurons): protective of neurons

Nc1nc2ccc(OC(F)(F)F)cc2s1 [Riluzole]
prolongation of life (ALS patients): prolonging life by a few months

CN1CCc2c(c3ccccc3n2Cc2ccc(C(=O)NO)cc2)C1 [Tubastatin A]
levels of acetylated α-tubulin (CMT2 neurons [1]): significantly improved | absolute velocity of moving axonal mitochondria (CMT2 neurons [2]): improve | total number of moving axonal mitochondria (CMT2 neurons [2]): improve

O=C(NCCO[N+](=O)[O-])c1cccnc1 [Nicorandil]
mitochondrial production of reactive oxygen species (ROS) (human cells): limit mitochondrial production of reactive oxygen species

Nc1ccncc1N [3,4-diaminopyridine]
acetylcholine release from the nerve terminal (nerve terminal): enhances | conduction in unmyelinated nerves (nerve terminal): improves
